According to patent publication US4344939A, “Penicillin 1,1-dioxides, compositions thereof and methods of use” (Bayer Aktiengesellschaft, priority 1979, dated 1982):

Columns and labels:
Format in all cases: cell-based
[1] = test system: Staphylococcus aureus 133; assay: in vitro turbidity test in Muller-Hinton nutrient broth; conditions: dosage of 1 μg/ml; 1×10^5 to 2×10^5 bacteria per ml; 0.1% glucose; incubated 24 hours
Experimental: […] In each case, the nutrient solution contained 1×10^5 to 2×10^5 bacteria per ml. The small tubes containing this batch were each incubated for 24 hours and the degree of turbidity was then determined. Absence from turbidity indicates action.

Klebsiella pneum. 1852 = assay: MIC, Table 1, Klebsiella pneum. 1852
Excerpt: (§1) The penicillanic acid 1,1-dioxide derivatives according to the invention inactivate, by inhibition or destruction, the bacterial enzymes which split the β-lactam ring (β-lactamases). The degradation of other penicillins, for example of amoxicillin, mezlocillin, ampicillin, azlocillin, penicillin G, carbenicillin and ticarcillin, is thereby prevented, and on the one hand their activity is thereby retained and on the other hand their spectrum of action is extended to bacteria which produce β-lactamase.

[2] = test system: Staphylococcus aeureus 1756; assay: MIC, Table 1, Staphylococcus aureus 1756
Excerpt: as §1

E. coli T 7 = assay: MIC, Table 1, E. coli T 7
Excerpt: as §1

| Structure (SMILES) | degree of turbidity (absence from turbidity indicates action) [1] | MIC (Klebsiella pneum. 1852) | MIC [2] | MIC (E. coli T 7) |
| --- | --- | --- | --- | --- |
| CCOC(OCC)(OCC)C(=O)N[C@@H]1C(=O)N2[C@@H](C(=O)O)C(C)(C)S(=O)(=O)[C@H]12 [Example 1] | free from turbidity | > 256 E/ml | > 256 E/ml |  |
| CC1(C)S[C@@H]2[C@H](NC(=O)[C@H](NC(=O)N3CCN(S(C)(=O)=O)C3=O)c3ccccc3)C(=O)N2[C@H]1C(=O)O [mezlocillin] |  | 128 E/ml | 256 E/ml | > 256 E/ml |
